# Measured values published in patent US20060045891A1, “Density-matched suspension vehicles and pharmaceutical suspensions” (priority 2004, published 2006).
# Test: Suspension of spheres: sphere placed in the vehicle and centrifuged
# Assay type: physicochemical
# Settings: Lucite sphere density 1.20 g/cc; two minutes at 1000 rpm; no calcium carbonate particles
# Description: Precipitated calcium carbonate particles (density 2.71 g/cc and average particle size 0.7 microns) were mixed with Vitamin E (density 0.95 g/cc) at a particle weight fraction of 0.333 (15% by volume of dense particles) to create a suspending vehicle. According to equation (1), the density of the suspending vehicle is 1.21 g/cc.
# A small Delrin sphere (density 1.35 g/cc, 3/32″ diameter) was placed in a first container holding the suspending vehicle.
# A Lucite sphere (density 1.20 g/cc, 3/32″ diameter) was placed in a second container holding the suspending vehicle and centrifuged at 2000 rpm for 2 minutes.
# In contrast, the Lucite sphere was placed in a third container of pure Vitamin E only and centrifuged for two minutes at 1000 rpm.
substance,measurement,value
Vitamin E,behaviour of Lucite sphere in the vehicle after centrifuging,sank to the bottom of the container in less than one minute
